Where two headings read alike, the source gives them in different places.
What was measured:
[1] = test system: NCI-H460 non-small cell lung cancer; experiment: MTT assay, proliferation inhibition; assay type: cell-based; settings: Homo sapiens, read-out: Proliferation inhibition rate
Text: (§1) 1. Cytotoxicity Assay Using Human Tumor Cell Lines
(§2) Paclitaxel was used as the positive drug.

HeLa cervical cancer = experiment: MTT assay, proliferation inhibition; assay type: cell-based; settings: Homo sapiens, read-out: Proliferation inhibition rate
Text: as §1, §2

BGC-823 gastric cancer = experiment: MTT assay, proliferation inhibition; assay type: cell-based; settings: Homo sapiens, read-out: Proliferation inhibition rate
Text: as §1, §2

MDA-MB-436 breast cancer = experiment: MTT assay, proliferation inhibition; assay type: cell-based; settings: Homo sapiens, read-out: Proliferation inhibition rate
Text: as §1, §2

HCT 116 colon cancer = experiment: MTT assay, proliferation inhibition; assay type: cell-based; settings: Homo sapiens, read-out: Proliferation inhibition rate
Text: as §1, §2

A375 melanoma = experiment: MTT assay, proliferation inhibition; assay type: cell-based; settings: Homo sapiens, A-375, read-out: Proliferation inhibition rate
Text: as §1, §2

B16 melanoma = experiment: MTT assay, proliferation inhibition; assay type: cell-based; settings: read-out: Proliferation inhibition rate
Text: as §1, §2

HL60 leukemia = experiment: MTT assay, proliferation inhibition; assay type: cell-based; settings: Homo sapiens, HL-60, read-out: Proliferation inhibition rate
Text: as §1, §2

[2] = test system: A549 non-small cell lung cancer; experiment: MTT assay, proliferation inhibition; assay type: cell-based; settings: Homo sapiens, read-out: Proliferation inhibition rate
Text: as §1, §2

HT29 colon cancer = experiment: MTT assay, proliferation inhibition; assay type: cell-based; settings: Homo sapiens, HT-29, read-out: Proliferation inhibition rate
Text: as §1, §2

LNCaP prostate cancer = experiment: MTT assay, proliferation inhibition; assay type: cell-based; settings: Homo sapiens, read-out: Proliferation inhibition rate
Text: as §1, §2

DU145 prostate cancer = experiment: MTT assay, proliferation inhibition; assay type: cell-based; settings: Homo sapiens, DU-145, read-out: Proliferation inhibition rate
Text: as §1, §2

K562 leukemia = experiment: MTT assay, proliferation inhibition; assay type: cell-based; settings: Homo sapiens, read-out: Proliferation inhibition rate
Text: as §1, §2

[3] = MTT assay, proliferation inhibition; assay type: cell-based; settings: Homo sapiens, LN-18 gastric cancer, read-out: Proliferation inhibition rate
Text: as §1, §2

MCF-7 breast cancer = experiment: MTT assay, proliferation inhibition; assay type: cell-based; settings: Homo sapiens, MCF7, read-out: Proliferation inhibition rate
Text: as §1, §2

A2780 ovarian cancer = experiment: MTT assay, proliferation inhibition; assay type: cell-based; settings: Homo sapiens, read-out: Proliferation inhibition rate
Text: as §1, §2

[4] = test system: breast cancer cell line MCF-7; experiment: IC50 values on breast cancer cell line MCF-7; assay type: cell-based; settings: Homo sapiens
Text: From the activity evaluation data of the above-mentioned preliminary screen, it can be seen that the series of taxanes derivatives synthesized in the present invention have activity (although the activity of PCMI-43 is weakened). Afterward, most of the compounds are picked up from these derivatives to examine their IC50 values on breast cancer cell line MCF-7. Paclitaxel is used as the positive control drug. Experiments for each compound were independently repeated for three times and multiple holes were used in each experiment. The exposure time of drugs was 72 hours.

Caco-2 cell monolayer [5] = experiment: Caco-2 cell monolayer membrane transport assay; settings: Caco-2 cell line (21 days); for efflux ratio: Papp B-A/Papp A-B; for Papp B-A / Papp A-B: bidirectional transport, Table 5
Text: (§3) Caco-2 Cell Monolayer Membrane Transport Assay
(§4) Human-derived colorectal adenocarcinoma cell line Caco-2 cell monolayer model was used to study the bidirectional transport of the target compounds from the apical (AP) side to the basolateral (BL) side and from BL side to AP side. HPLC was used for quantitative analysis to calculate transport parameters, apparent permeability coefficient (Papp) and the efflux ratio.

[6] = Caco-2 cell monolayer membrane transport assay; settings: human; for Papp A→B: Caco-2, Papp A-B; for recovery: Caco-2, Recovery rate in mass
Text: as §3, §4

16 cancer cell lines = experiment: Preliminary cytotoxicity evaluation on 16 cancer cell lines (MTT); assay type: cell-based, human; settings: preliminary screen at 1 μM, compared with paclitaxel
Text: as §1, §2
In both cancer cell lines of A549 and B16, the cytotoxicity of the taxanes derivatives is slightly lower than that of the positive control drug.

[7] = reported value for paclitaxel; cited from earlier work
Caco-2 cell monolayer [8] = settings: human
Text: as §3, §4

in vitro = settings: human, Caco-2, Papp A-B, Mean
Text: as §3, §4

[9] = MCF7, 72 h, read-out: MCF-7(IC50, nM)
[10] = Caco-2 cell line (21 days), bidirectional transport, Table 5
[11] = Sample-01, Caco-2, A-B, Sample-01
[12] = Sample-02, Caco-2, A-B, Sample-02
[13] = Mean, Caco-2, A-B, mean of two samples

SMILES | inhibition at 1 µM [1] [%] | inhibition at 1 µM (HeLa cervical cancer) [%] | inhibition at 1 µM (BGC-823 gastric cancer) [%] | inhibition at 1 µM (MDA-MB-436 breast cancer) [%] | inhibition at 1 µM (HCT 116 colon cancer) [%] | inhibition at 1 µM (A375 melanoma) [%] | inhibition at 1 µM (B16 melanoma) [%] | inhibition at 1 µM (HL60 leukemia) [%] | inhibition at 1 µM [2] [%] | inhibition at 1 µM (HT29 colon cancer) [%] | inhibition at 1 µM (LNCaP prostate cancer) [%] | inhibition at 1 µM (DU145 prostate cancer) [%] | inhibition at 1 µM (K562 leukemia) [%] | inhibition at 1 µM [3] [%] | inhibition at 1 µM (MCF-7 breast cancer) [%] | inhibition at 1 µM (A2780 ovarian cancer) [%] | Papp A→B [6, 11] [×10⁻⁶ cm/s] | Papp A→B [6, 12] [×10⁻⁶ cm/s] | recovery [6, 13] [%] | recovery [6, 11] [%] | also measured
CO[C@H]1C(=O)[C@]2(C)CC[C@H]3OC[C@@]3(OC(C)=O)[C@H]2[C@H](OC(=O)c2ccccc2)[C@]2(O)C[C@H](OC(=O)[C@H](O)[C@H](CC(C)C)NC(=O)OC(C)(C)C)C(C)=C1C2(C)C [PCMI-42] | 84.3 | 99.3 | 92.8 | 79.5 | 66.1 | 104 | 78.3 | 97.6 | 77.6 | 88.2 | 82.9 | 87 | 94.3 | 94.8 | 97.8 | 95.6 | 7.85 | 6.49 | 74.2 | 81 | IC50 [4, 9]: 3.06 ± 0.08 nM; efflux ratio (Caco-2 cell monolayer [5]): 5.12; Papp B-A (Caco-2 cell monolayer [5]): 38.57 10^−6 cm/s; Papp A→B [6, 10]: 7.54 ×10⁻⁶ cm/s; recovery [6, 12]: 67.3%
COC(=O)O[C@H]1C(=O)[C@]2(C)[C@@H](OC)C[C@H]3OC[C@@]3(OC(C)=O)[C@H]2[C@H](OC(=O)c2ccccc2)[C@]2(O)C[C@H](OC(=O)[C@H](O)[C@@H](NC(=O)OC(C)(C)C)c3ccccc3)C(C)=C1C2(C)C [PCMI-26] | 86.4 | 101 | 89.2 | 76.3 | 81.1 | 94.2 | 69.7 | 96.8 | 66.2 | 88.8 | 79.8 | 86.2 | 91.4 | 89 | 95.5 | 95.8 | 8.45 | 9.06 | 81.4 | 80.9 | IC50 ([4]; MCF7, MCF-7, exposure 72 hours, mean±SD of three independent experiments, read-out: MCF-7(IC50)): 1.4 ± 0.1 nM; efflux ratio (Caco-2 cell monolayer [5]): 4.22; Papp A-B (Caco-2 cell monolayer [5]): 6.91 10^−6 cm/s; Papp B-A (Caco-2 cell monolayer [5]): 29.18 10^−6 cm/s; Papp A→B [6, 13]: 8.75 ×10⁻⁶ cm/s; recovery [6, 12]: 82%
COC(=O)O[C@H]1C[C@H]2OC[C@@]2(OC(C)=O)[C@H]2[C@H](OC(=O)c3ccccc3)[C@]3(O)C[C@H](OC(=O)[C@H](O)[C@H](CC(C)C)NC(=O)OC(C)(C)C)C(C)=C([C@@H](OC)C(=O)[C@]12C)C3(C)C [PCMI-39] | 81.6 | 100 | 91.7 | 78.4 | 57.1 | 90.2 | 72.3 | 99.1 | 67.4 | 88.4 | 82.8 | 84.9 | 92.2 | 94.1 | 100 | 94.9 | 6.13 | 8.81 | 64.2 | 71.7 | IC50 [4, 9]: 2.81 ± 0.02 nM; Papp A-B (Caco-2 cell monolayer [5]): 7.16 10^−6 cm/s; Papp B-A (Caco-2 cell monolayer [5]): 36.37 10^−6 cm/s; Papp A→B [6, 13]: 7.47 ×10⁻⁶ cm/s; recovery [6, 12]: 56.7%
CO[C@H]1C(=O)[C@]2(C)C=C[C@@H](O)[C@](CO)(OC(C)=O)[C@H]2[C@H](OC(=O)c2ccccc2)[C@]2(O)C[C@H](OC(=O)[C@H](O)[C@@H](NC(=O)OC(C)(C)C)c3ccccc3)C(C)=C1C2(C)C [PCMI-44] | 85.2 | 99.3 | 90.8 | 82.7 | 67.1 | 93.9 | 75.3 | 96.3 | 75.9 | 88.3 | 86.9 | 89.2 | 94.4 | 89.8 | 95.2 | 95.6 | 5.28 | 6.39 | 95.8 | 85.7 | IC50 [4, 9]: 10.9 ± 0.16 nM; cytotoxicity (in words) (16 cancer cell lines): remains good cytotoxicity; Papp B→A ([6]; Caco-2): 27.2 ×10⁻⁶ cm/s; efflux ratio ([6]; Caco-2): 4.76; Papp A→B [6, 10]: 5.72 ×10⁻⁶ cm/s; Papp A→B [6, 13]: 5.83 ×10⁻⁶ cm/s; recovery [6, 12]: 106%
CC(=O)O[C@H]1C(=O)[C@@]2(C)[C@H]([C@H](OC(=O)c3ccccc3)[C@]3(O)C[C@H](OC(=O)[C@H](O)[C@@H](NC(=O)c4ccccc4)c4ccccc4)C(C)=C1C3(C)C)[C@]1(OC(C)=O)CO[C@@H]1C[C@@H]2O [Paclitaxel, reference compound] | 87.5 | 101 | 92.5 | 83.1 | 70.4 | 96.2 | 84 | 96.8 | 81.6 | 88.4 | 87.1 | 90.6 | 96.6 | 94.5 | 94.2 | 96.7 | – | – | – | – | IC50 ([4]; MCF7, 72 h, MCF-7, exposure 72 hours, mean±SD of three independent experiments, read-out: MCF-7(IC50)): ~7.05 nM; reported absolute oral bioavailability [7]: less than 5%; Papp A-B (Caco-2 cell monolayer [8]): 0.97 10^−6 cm/s; Papp B-A (Caco-2 cell monolayer [8]): 33.39 10^−6 cm/s; efflux ratio (Caco-2 cell monolayer [8]): 34.38; Papp A→B (in vitro): 0.97 ×10⁻⁶ cm/s
CO[C@H]1C(=O)[C@]2(C)C=C[C@@H](O)[C@](CO)(OC(C)=O)[C@H]2[C@H](OC(=O)c2ccccc2)[C@]2(O)C[C@H](OC(=O)[C@H](O)[C@@H](NC(=O)c3ccccc3)c3ccccc3)C(C)=C1C2(C)C [PCMI-43] | 62.1 | 52 | 38.2 | 35.7 | 46.1 | 77.8 | 13.3 | 76.3 | 53.9 | 36.4 | 61.2 | 63.4 | 80.9 | 73.2 | 68.3 | 70 | 3.21 | 2.89 | 72 | 76.6 | cytotoxicity (in words) (16 cancer cell lines): weakened; Papp A→B [6, 13]: 3.05 ×10⁻⁶ cm/s; recovery [6, 12]: 67.5%

— patent US10253007B2, “Taxanes compounds, preparation method therefor, and uses thereof” (Jiangsu Tasly Diyi Pharmaceutical Co., Ltd., priority 2013, dated 2019)
